# Measured values as given in patent US20220142955A1, “METHODS OF TREATING ORGANIC ACIDEMIAS” (HemoShear Therapeutics, Inc., priority 2019, published 2022).
# Where two headings read alike, the source gives them in different places.
# Key:
# [1] = system: normal primary hepatocytes; test: HemoShear Technology, normal primary hepatocytes (Example 11); format: cell-based, human; details: Normal pHeps
# [2] = system: primary hepatocytes of propionic acidemia patients; test: Propionyl-CoA from various sources in PA primary hepatocytes (Examples 2, 3); format: cell-based, human; details: Homo sapiens, Hepatocyte, read-out: concentration of propionyl-CoA EC50
# Description: Primary hepatocytes isolated from livers of propionic acidemia patients are treated with increasing doses of compound 1 (0, 1, 3, 10, 30, 100, 300, 1000 μM) for 30 min. After 30 min the cells are challenged with the different sources of P-CoA, which may include ^13C-ketoisovaleric acid (KIVA) (1 mM), […] (ILE) (3 mM), ^13C-threonine (THR) (5 mM), ^13C-methionine (MET) (5 mM), ^13C-heptanoate (100 μM), or ^13C-propionate (5 mM) for 60 minutes. At the end of the challenge period, media is removed and the cells are lysed with 70% MeCN and 0.1% TFA containing 100 μM of ethymalonyl-CoA as an internal standard and harvested. Cell lysates are processed for HTMS/MS analysis.
# Primary hepatocytes isolated from livers of propionic acidemia patients are treated with increasing doses of compound 5 (0, 0.1, 0.3, 1, 3, 10, 30, 100 μM) for 30 minutes. After 30 minutes the cells are challenged with the different sources of P-CoA, which may include ^13C-KIVA (1 mM), ^13C-isoleucine (3 mM), ^13C-threonine (5 mM), ^13C-methionine (5 mM), ^13C-heptanoate (100 μM), or ^13C-propionate (5 mM) for 60 minutes. At the end of the challenge period, media is removed and the cells are lysed with 70% MeCN and 0.1% TFA containing 100 μM of ethymalonyl-CoA as an internal standard and harvested. Cell lysates are processed for HTMS/MS analysis.
# PA primary hepatocytes = test: Static cell culture, low/high propiogenic media, PA primary hepatocytes; format: cell-based, human; details: for EC50 / EC90: Homo sapiens, Hepatocyte
# Description: Unlike the HemoShear Technology, this assay is carried out without constant perfusion, utilizing cell culture media that was customized to mimic plasma levels of propiogenic sources (amino acids and ketoacids) in PA and MMA patients during periods of relative metabolic stability (low propiogenic media) and acute metabolic crisis (high propiogenic media). PA and MMA pHeps, in static cell culture, were treated with Compound 5 (concentrations ranging from 0.1 μM to 100 μM) for 30 minutes in low propiogenic media, followed by either a continuation of low propiogenic media or a switch to the high propiogenic media for 1 hour. The media used during the 1-hour incubation contained propiogenic SIL amino acids and ketoacids which are metabolized into labeled P-CoA and M-CoA in the cells. The SIL amino acids and ketoacids were a mix of ^13C and MeD8 labelling, but their catabolism produced a SIL P-CoA (denoted as ^13C-P-CoA for simplicity) with the same mass, independent of the type of SIL (also true for ^13C-M-CoA).
# clinical = test: clinical; parameters: species or system human; details: in vivo; for AUC / Cmax: human
# Description: In some embodiments, the method entails administering 2,2-dimethylbutyric acid, or a CoA ester or carnitine ester thereof, or a pharmaceutically acceptable salt, ester, or solvate thereof, at a concentration ranging from about, including about […] to 50 mg/kg.
# MMA primary hepatocytes = test: HemoShear Technology, MMA primary hepatocytes (Examples 10, 11); format: cell-based, human; details: for EC50 / EC90: Homo sapiens, Hepatocyte
# [3] = PA pHeps, high propiogenic, static culture
# [4] = PA pHeps, low propiogenic, static culture
# [5] = MMA pHeps, HemoShear, average ± SD
structure (smiles),measurement,setting,value
"CCC(C)(C)C(=O)O [Compound 5, 2,2-dimethybutanoic acid]",EC50,"[1]; Homo sapiens, Hepatocyte, read-out: Compound 5-CoA (formation) EC50",8.3 ± 8 µM
same,EC90,"[1]; Homo sapiens, Hepatocyte, read-out: Compound 5-CoA (formation) EC90",26.1 ± 3.1 µM
same,12C-Acetyl-CoA Percent change at 30 μM,[1],20 ± 2.9%
same,CoASH Percent change at 30 μM,[1],−35.2 ± 3%
same,EC50,[2]; 1 mM 13C-KIVA,0.89 µM
same,EC50,[2]; 3 mM 13C-ILE,0.42 µM
same,EC50,[2]; 5 mM 13C-THR,1.24 µM
same,EC50,[2]; 5 mM 13C-propionate,15.3 µM
same,EC50,"PA primary hepatocytes; PA pHeps, high propiogenic media, static, read-out: 13C-Propionyl-CoA (13C-P-CoA) EC50",1.7 ± 1 µM
same,EC90,"PA primary hepatocytes; PA pHeps, high propiogenic media, static, read-out: 13C-Propionyl-CoA (13C-P-CoA) EC90",11.6 ± 7.4 µM
same,EC50,"PA primary hepatocytes; PA pHeps, high propiogenic, static culture, read-out: 12C-Acetyl-CoA EC50",0.7 ± 0.5 µM
same,EC90,"PA primary hepatocytes; PA pHeps, high propiogenic, static culture, read-out: 12C-Acetyl-CoA EC90",1.9 ± 1.3 µM
same,EC50,"PA primary hepatocytes; PA pHeps, high propiogenic, static culture, read-out: CoASH EC50",2.1 ± 1.6 µM
same,EC90,"PA primary hepatocytes; PA pHeps, high propiogenic, static culture, read-out: CoASH EC90",11.1 ± 13 µM
same,EC50,"PA primary hepatocytes; PA pHeps, high propiogenic, static culture, read-out: Compound 5-CoA (formation) EC50",2.6 ± 1.6 µM
same,EC90,"PA primary hepatocytes; PA pHeps, high propiogenic, static culture, read-out: Compound 5-CoA (formation) EC90",42 ± 45.8 µM
same,EC50,"PA primary hepatocytes; PA pHeps, low propiogenic media, static, read-out: 13C-Propionyl-CoA (13C-P-CoA) EC50",2 ± 1.8 µM
same,EC90,"PA primary hepatocytes; PA pHeps, low propiogenic media, static, read-out: 13C-Propionyl-CoA (13C-P-CoA) EC90",6.9 ± 5.4 µM
same,EC50,"PA primary hepatocytes; PA pHeps, low propiogenic, static culture, read-out: 12C-Acetyl-CoA EC50",0.4 ± 0.2 µM
same,EC90,"PA primary hepatocytes; PA pHeps, low propiogenic, static culture, read-out: 12C-Acetyl-CoA EC90",1.6 ± 1.3 µM
same,EC50,"PA primary hepatocytes; PA pHeps, low propiogenic, static culture, read-out: CoASH EC50",0.9 ± 0.3 µM
same,EC90,"PA primary hepatocytes; PA pHeps, low propiogenic, static culture, read-out: CoASH EC90",9.1 ± 5.8 µM
same,EC50,"PA primary hepatocytes; PA pHeps, low propiogenic, static culture, read-out: Compound 5-CoA (formation) EC50",1.4 ± 0.6 µM
same,EC90,"PA primary hepatocytes; PA pHeps, low propiogenic, static culture, read-out: Compound 5-CoA (formation) EC90",15.3 ± 11.3 µM
same,EC90,"PA primary hepatocytes; static cell culture, PA and MMA pHeps, low and high propiogenic media together, read-out: average EC90 value across all biomarkers",11 ± 9.6 µM
same,13C-Propionyl-CoA (13C-P-CoA) % change at 30 μM,"PA primary hepatocytes; PA pHeps, high propiogenic media, static",−85.3±9.1%
same,12C-Acetyl-CoA Percent change (30 μM),PA primary hepatocytes; [3],−27 ± 3.4%
same,CoASH Percent change (30 μM),PA primary hepatocytes; [3],−48 ± 14.3%
same,13C-Propionyl-CoA (13C-P-CoA) % change at 30 μM,"PA primary hepatocytes; PA pHeps, low propiogenic media, static",−76.4±12.6%
same,12C-Acetyl-CoA Percent change (30 μM),PA primary hepatocytes; [4],−36.6 ± 13.5%
same,CoASH Percent change (30 μM),PA primary hepatocytes; [4],−55.2 ± 7.1%
same,AUC,clinical; 30 mg/kg,2180 µg·h/mL
same,Cmax,clinical; 30 mg/kg,156 µg/mL
same,AUC,clinical; 40 mg/kg,2620 µg·h/mL
same,Cmax,clinical; 40 mg/kg,203 µg/mL
same,AUC,clinical; 50 mg/kg,3200 µg·h/mL
same,Cmax,clinical; 50 mg/kg,256 µg/mL
same,Blood plasma concentrations following administration (dose dependence),clinical,dose proportional
same,EC50,"MMA primary hepatocytes; MMA donor 1, representative data (FIG. 7A), read-out: P-CoA reduction EC50",3.9 µM
same,EC50,"MMA primary hepatocytes; MMA donor 1, representative data (FIG. 7B), read-out: M-CoA reduction EC50",3.25 µM
same,EC50,"MMA primary hepatocytes; MMA donor 1, representative data (FIG. 7E), read-out: MCA reduction EC50",1.66 µM
same,EC50,"MMA primary hepatocytes; MMA pHeps, HemoShear, average ± SD, read-out: 2-Methylcitric acid (2MC) EC50",0.8 ± 0.5 µM
same,EC90,"MMA primary hepatocytes; MMA pHeps, HemoShear, average ± SD, read-out: 2-Methylcitric acid (2MC) EC90",7.5 ± 6.4 µM
same,EC50,"MMA primary hepatocytes; MMA pHeps, HemoShear, average ± SD, read-out: 12C-Acetyl-Camitine (C2) EC50",4.3 ± 2.2 µM
same,EC90,"MMA primary hepatocytes; MMA pHeps, HemoShear, average ± SD, read-out: 12C-Acetyl-Camitine (C2) EC90",31.3 ± 26.9 µM
same,EC50,"MMA primary hepatocytes; MMA pHeps, HemoShear, average ± SD, read-out: 12C-Methylmalonyl-CoA (M-CoA) EC50",2 ± 1.2 µM
same,EC90,"MMA primary hepatocytes; MMA pHeps, HemoShear, average ± SD, read-out: 12C-Methylmalonyl-CoA (M-CoA) EC90",12.6 ± 12.9 µM
same,EC50,"MMA primary hepatocytes; MMA pHeps, HemoShear, average ± SD, read-out: 12C-Propionyl-Carnitine (C3) EC50",1.4 ± 0.5 µM
same,EC90,"MMA primary hepatocytes; MMA pHeps, HemoShear, average ± SD, read-out: 12C-Propionyl-Carnitine (C3) EC90",18.1 ± 16.2 µM
same,EC50,"MMA primary hepatocytes; MMA pHeps, HemoShear, average ± SD, read-out: 12C-Propionyl-CoA (P-CoA) EC50",2.1 ± 1.5 µM
same,EC90,"MMA primary hepatocytes; MMA pHeps, HemoShear, average ± SD, read-out: 12C-Propionyl-CoA (P-CoA) EC90",36.1 ± 30.1 µM
same,EC50,"MMA primary hepatocytes; MMA pHeps, HemoShear, read-out: CoASH EC50",14.1 ± 8.4 µM
same,EC90,"MMA primary hepatocytes; MMA pHeps, HemoShear, read-out: CoASH EC90",23.8 ± 20.2 µM
same,EC50,"MMA primary hepatocytes; MMA pHeps, HemoShear, read-out: Compound 5-CoA (formation) EC50",3.5 ± 1.7 µM
same,EC90,"MMA primary hepatocytes; MMA pHeps, HemoShear, read-out: Compound 5-CoA (formation) EC90",52.4 ± 45.6 µM
same,12C-Acetyl-CoA Percent change at 30 μM,"MMA primary hepatocytes; MMA pHeps, HemoShear",13.5 ± 24.9%
same,CoASH Percent change at 30 μM,"MMA primary hepatocytes; MMA pHeps, HemoShear",−22.3 ± 22.3%
same,average reduction in the C3/C2 ratio,"MMA primary hepatocytes; MMA pHeps, HemoShear, at 30 μM",−2.2±0.2 log 2 fold change
same,2-Methylcitric acid (2MC) % change at 30 μM,MMA primary hepatocytes; [5],−66.7±14.9%
same,12C-Acetyl-Camitine (C2) % change at 30 μM,MMA primary hepatocytes; [5],44.6 ± 26.8%
same,12C-Methylmalonyl-CoA (M-CoA) % change at 30 μM,MMA primary hepatocytes; [5],−55±6.6%
same,12C-Propionyl-Carnitine (C3) % change at 30 μM,MMA primary hepatocytes; [5],−65.9±10.7%
same,12C-Propionyl-CoA (P-CoA) % change at 30 μM,MMA primary hepatocytes; [5],−74.2±11.6%
